Data as given in ChEMBL document CHEMBL4706675, “Ulmusakidian, a new coumarin glycoside and antifungal phenolic compounds from the root bark of Ulmus davidiana var. japonica” (2021).
Activity calls are given as the source filed them. The rule behind the calls is not given here.

Test system: Candida albicans
Assay: Antifungal activity against Candida albicans assessed as fungal growth inhibition
Type: functional, organism-based

Structure (SMILES)	Activity
COc1cc2c(cc1O)[C@H](c1cc(OC)c(O)c(OC)c1)[C@@H](COC1OC[C@@H](O)[C@H](O)[C@H]1O)[C@H](CO)C2 (stereo not given in full)	inactive
COc1ccc(-c2cc(=O)c3c(O)cc(O)cc3o2)cc1	inactive
COc1cc([C@H]2c3cc(O)c(OC)cc3C[C@@H](CO)[C@@H]2COC2OC[C@@H](O)[C@H](O)[C@H]2O)ccc1O (stereo not given in full)	inactive
COc1cc(O)c2c(=O)c(O[C@@H]3O[C@@H](C)[C@H](O)[C@@H](O)[C@H]3O)c(-c3ccc(O)c(O)c3)oc2c1	inactive
COc1ccc(-c2oc3cc(OC)cc(OC)c3c(=O)c2OC)cc1	inactive
COc1cc([C@@H]2Oc3c(OC)cc(CCCO)cc3[C@H]2CO)ccc1O[C@@H]1O[C@@H](C)[C@H](O)[C@@H](O)[C@H]1O	inactive
COc1cc(C(=O)OC[C@H]2O[C@@H](Oc3c(O)c(OC)cc4ccc(=O)oc34)[C@H](O)[C@@H](O)[C@@H]2O)cc(OC)c1O	inactive
COc1cc(C[C@@H](CO)[C@H](COC2OC[C@@H](O)[C@H](O)[C@H]2O)Cc2cc(OC)c(O)c(OC)c2)cc(OC)c1O (stereo not given in full)	inactive
COc1cc(C(=O)OC[C@H]2O[C@@H](Oc3c(O)c(OC)cc4ccc(=O)oc34)[C@H](O)[C@@H](O)[C@@H]2O)ccc1O	inactive
COc1ccc(-c2cc(=O)c3c(OC)cc(OC)cc3o2)cc1	inactive
